# Measurements reported in PubChem BioAssay AID651717 (Broad Institute, 2012).
# Test system: mESC Bmi1-luciferase reporter, firefly/renilla ratio, 24 h
# Assay: Bmi1-luciferase reporter activators in mESC, dose response, esBAF inhibitor project, mouse embryonic stem cells, cherry-pick (AID 651717);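 further: luciferase knocked into Bmi1 locus with EF-1a renilla as cell number control; rising ratio signals esBAF inhibition which derepresses Bmi1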
row,SMILES,AC40 [µM]
1,Cc1cc(C)c2nc(-c3ccccc3)ccc2c1,1.5
2,COc1ccc(C(O)c2nc(-c3ccc4ccccc4c3)cs2)cc1 (centres undefined),13
3,O=C(c1cc2ccccc2oc1=O)N(Cc1cccs1)C1CCS(=O)(=O)C1 (centres undefined),3.94
4,COc1ccccc1CNC(=O)C[C@H]1CC[C@H]2[C@@H](COC[C@@H](O)CN2C(=O)Nc2ccc(Cl)cc2)O1,1.05
5,COc1cccc(C(=O)c2cc3cc(Cl)ccc3[nH]2)c1,3.55
6,Cc1ccc2sc(NC(=O)C3CC3)nc2c1C,6.72
7,CC(=O)Nc1nc(-c2ccc(-c3ccccc3)cc2)cs1,1.56
8,COc1ccccc1C(=O)Nn1cnc2ccccc2c1=O,8.5
9,Cc1c(C(=O)NCc2cccnc2)sc2nc(-c3ccc(F)cc3)cn12,12.2
10,C#CCn1cccc(C(=O)Nc2ccc(OC)cc2)c1=O,10.7
11,COc1ccc2c(=O)c3ccccc3oc2c1,4.7
12,CCN(CC)c1ccc2cc(C(=O)c3cccs3)c(=O)oc2c1,11.6
13,CN=Cc1cc(-c2ccccc2)sc1O,12.9
14,c1ccc(-c2ccc3[nH]ccc3c2)cc1,3.07
15,COc1cc(N=Nc2ccc(C(=O)N(C)C)cc2)c(C)cc1N,8.86
16,Cc1ccc(-c2nnn(CC(=O)N(Cc3cccs3)C(C(=O)NC3CCCC3)c3ccncc3)n2)cc1 (centres undefined),34.5
17,CCCOc1ccc(NC(=O)C2CC(=O)N/C(=N/N=C(C)/C=C/c3ccc(N(C)C)cc3)S2)cc1 (centres undefined),6
18,Cc1csc(NC(=O)Cc2c(F)cccc2Cl)n1,8.57
19,Cc1cc(C)c2c(N)c(C(=O)Nc3ccccc3Br)sc2n1,2.16
20,COc1ccc(-c2ccc3n2Cc2cnnn2-c2ccccc2-3)cc1,4.57
21,CC(=O)N1N=C(c2ccc(Br)cc2)CC1c1ccc(Br)cc1 (centres undefined),14.5
22,c1ccc(Cn2c(-c3cncs3)nc3ccccc32)cc1,11.8

row,SMILES,AC40 [µM]
1,c1ccc(-c2nc3c(ccc4ccccc43)[nH]2)nc1,0.96
2,C=CCSC1=NNC(c2ccc(C(C)(C)C)cc2)=NN1,8.49
3,CCN(C(=O)c1cc2c(=O)n3cccc(C)c3nc2s1)C1CCCCC1,25.1
4,CC(=O)Oc1ccc(-c2csc(Nc3ccc(Cl)cn3)n2)cc1,2.19
5,COc1ccc2nc3ccccc3[n+]([O-])c2c1,2.1
6,COc1ccc(OCc2cc(C(=O)NC(C)Cc3cnccn3)no2)c(Cl)c1 (centres undefined),5.42
7,Nc1cc2c(cc1Cl)-c1ccccc1C2,6.53
8,CN(C)c1ccccc1-c1csc(N2CCC(C(N)=O)CC2)n1,< 0.26
9,Cc1ccc(CNC(=O)C2CCC(=O)N(CCc3ccc(Cl)cc3)C2)cc1 (centres undefined),5.36
10,Cc1ccc(C(=O)N2CCc3ccccc32)cc1C,3.55
11,Cc1ccc(NCC(=O)N/N=C/c2cc3ccccc3nc2Cl)cc1,30.6
12,COc1ccccc1NC(=O)Cn1nnc(-c2ccccc2NC(=O)c2cc3ccccc3oc2=O)n1,4.5
13,COc1cc2ccccc2cc1C(=O)NC1CCCC1,8.82
14,Cc1ccsc1CN(C)C(=O)C1CCC(=O)N(CCc2cccc(F)c2)C1 (centres undefined),5.77
15,Cc1ccc2c(COC(=O)C34CC5CC(CC(C5)C3)C4)cc(=O)oc2c1,3.95
16,Cc1ccc(Nc2nc(Cl)nc(NC(C)(C)C)n2)cc1,1.47
17,Cc1cc(C(=O)Cn2cnc3ccccc3c2=O)c(C)n1C1CC1,2.92
18,C#CCN(CC=C)C(=O)CCc1nnc(COc2ccccc2)o1,22.4
19,CCOC(=O)C1=C(CSc2nc(-c3ccccc3)ccc2C#N)OC(N)=C(C#N)C1c1cccnc1 (centres undefined),2.89
20,CC(C)c1ccc(CNc2ncccn2)cc1,2.82
21,C(=Cc1cnnc2ccccc12)c1ccccc1,1.23
22,Cc1csc(=O)n1CC(=O)OCc1cccc2ccccc12,11.4
